Tests used:
[1] = target: R.Luc-connector-DhaA.H272F (UniProt P0A3G2+P27652, H272F/T2A); type: binding; conditions: pretreatment with non-biotinylated substrate
[2] = target: hR.Luc-connector-DhaA.H272F-Flag (UniProt P0A3G2+P27652, H272F/T2A); type: cell-based; conditions: Western blot, anti-R.Luc antibody

Compound	decrease of the efficiency of capturing [1]	hR.Luc-connector-DhaA.H272F-Flag fusion protein captured [2]
N-{2-[2-(6-Chlorohexyloxy)-ethoxy]-ethyl}-tetramethylrhodamine-5-(and -6)-amide	about 80%	
O=C(CCCC[C@@H]1SC[C@@H]2NC(=O)N[C@@H]21)NCCOCCOCCCCCCCl [biotin-C10H21NO2—Cl, N-{2-[2-(6-Chlorohexyloxy)-ethoxy]ethyl}-biotin-amide]		more than 50%

Reference: US9416353B2, “Covalent tethering of functional groups to proteins and substrates therefor” (Promega Corporation, priority 2004, dated 2016)
